In this assay the target is T1, hBLT2 (Homo sapiens, UniProt Q9NPC1).
T1 construct: expressed in transfected cells; membrane preparation
T1 sequence (Q9NPC1 1-358): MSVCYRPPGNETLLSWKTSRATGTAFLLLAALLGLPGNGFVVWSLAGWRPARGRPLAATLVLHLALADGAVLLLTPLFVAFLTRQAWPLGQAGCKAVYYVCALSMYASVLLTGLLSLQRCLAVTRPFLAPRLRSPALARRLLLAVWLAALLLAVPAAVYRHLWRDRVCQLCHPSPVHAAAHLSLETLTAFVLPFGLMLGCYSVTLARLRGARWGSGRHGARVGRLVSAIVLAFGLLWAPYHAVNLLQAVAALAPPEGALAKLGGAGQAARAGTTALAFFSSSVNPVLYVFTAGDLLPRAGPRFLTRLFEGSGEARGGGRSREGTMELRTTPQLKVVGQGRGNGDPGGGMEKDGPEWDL
In words: [3H]-LTB4 binding assay in hBLT2 containing membranes. The note with it: [3H]-LTB4 displacement, hBLT2/CHO-K1 membranes. On the procedure:
[^3H]-LTB4 and known BLT1 and BLT2 antagonists are used to generate LTB4 displacement curves and IC50 values for compounds of the present invention. Receptor inhibition by compounds of the present invention is determined relative to BLT1 inhibitor and BLT2 inhibitor reference molecules to obtain percent efficacies.
hBLT2 Test Compound Preparations: For hBLT2 assays, test compounds are prepared in DMSO to make up a 10 mM stock solution. The stock solution is initially diluted 1:10 in Buffer A (50 mM HEPES pH 7.4, 10 mM MgCl2, 10 mM NaCl, 10% glycerol (v/v), 1% BSA (w/v)), followed by 3× serial dilutions in Buffer B (50 mM HEPES pH 7.4, 10 mM MgCl2, 10 mM NaCl, 10% glycerol (v/v), 1% BSA (w/v), 10% DMSO (v/v)) creating a ten-point dilution curve. Final compound concentrations ranging from 300 μM to 15.2 nM are plated in a 96-well round-bottom plate for conducting the in vitro assays. […]
[^3H]-LTB4 (30 μL of 2.8 nM, PerkinElmer NET-852) is aliquoted into each well of a Falcon® 3072 microtiter plate (BD Biosciences). […] The plate is allowed to sit for 16 h and then read on a Packard Instrument Company Topcount® for 1 min. […]

Structures are written as SMILES. pIC50: −log10 of the molar value. Like-named read-outs stand apart in the source and are kept apart here.

For the compound `CCCc1c(NC(=O)CC(C)(C)C(=O)[O-])cccc1OCCCOc1cc(O)c(-c2ccc(F)cc2)cc1CC.[Na+]` [Example 2, Sodium 4-[[3-[3-[2-ethyl-4-(4-fluorophenyl)-5-hydroxy-phenoxy]propoxy]-2-propyl-phenyl]amino]-2,2-dimethyl-4-oxo-butanoate], the negative-log IC50 (pIC50) reads like this: (read-out: absolute IC50) 4.78; (read-out: relative IC50) 4.81.

These data come from patent US9187411B2, “Leukotriene B4 antagonist compound” (Eli Lilly and Company, priority 2012, dated 2015).
